# Data: US20110191897A1, “Plants Tolerant to HPPD Inhibitor Herbicides” (Bayer CropScience AG, priority 2009, published 2011)
# “And” between values parts separate entries of the source, which are not always exact repeats. Equal values may be shown once.
# Columns and labels:
# [1] = test system: T1 tobacco plants with Arabidopsis HPPD; test: Glasshouse spray trial, herbicidal damage; type: in vivo, Nicotiana tabacum; details: 100 gAl/ha, 7DAT
# Experimental: (§1) T0 Tobacco plants containing either the gene from Arabidopsis coding for HPPD or the gene FMP37e from Blepharisma japonicum coding for FMP37 HPPD, mentioned above (Example 3), were transferred to the glasshouse (28/20° C.), to develop further and produce seeds. Those seeds were harvested and put on soil (ED73 mixed with sand and osmocote Pro) to germinate in the glasshouse (28/20° C.). Three to four weeks later, plantlets were transferred to single pots containing the soil mentioned above. Two weeks later, plants of a size 4-6 cm diameter were sprayed with either • tembotrione at 100 Al/ha prepared from a WP20 (wettable powder 20%) formulation supplemented with ammonium sulfate and methyl ester raps oil, or • isoxaflutole at 100 Al/ha prepared from a WP20 formulation supplemented with ammonium sulfate and methyl ester raps oil, or • bicyclopyrone at 100 gAl/ha prepared from a WP20 formulation supplemented with ammonium sulfate and methyl ester raps oil, or • “blind formulation” made from a WP20 formulation without active ingredient (Al) supplemented with ammonium sulfate and methyl ester raps oil, and were then transferred to a growth chamber with adequate light conditions (20000Lux).
# [2] = test system: T1 tobacco plants with FMP37e coding for the HPPD FMP37; test: Glasshouse spray trial, herbicidal damage; type: in vivo, Nicotiana tabacum; details: 100 gAl/ha, 7DAT
# Experimental: as §1
# [3] = test system: transgenic soybean shoots (FMP37); test: Soybean shoot greening on isoxaflutole selection; type: in vivo; details: isoxaflutole as selection marker
# Text: (§2) Soybean transformation is achieved using methods well known in the art, such as the one described using the Agrobacterium tumefaciens mediated transformation soybean half-seed explants described by Paz et al. (2006, Plant cell Rep. 25:206). Transformants were identified using Isoxaflutole as selection marker. The appearance of green shoots was observed, and documented as an indicator of tolerance to the herbicide isoxaflutole.
# wild-type soybean shoots = test: Soybean shoot greening on isoxaflutole selection; type: in vivo; details: same amount of isoxaflutole
# Text: as §2
smiles,measurement,setting,value
"CS(=O)(=O)c1cc(C(F)(F)F)ccc1C(=O)c1cnoc1C1CC1 [Isoxaflutole, (5-cyclopropyl-4-isoxazolyl)[2-(methylsulfonyl)-4-(trifluoromethyl)phenyl]methanone]",% injury,"[1]; line 252, individual plants",99%
same,% injury,"[1]; line 327, individual plants",98% and 99% and 100% (4×)
same,% injury,"[2]; line 113, individual plants",30% (4×) and 50%
same,% injury,"[2]; line 207, individual plants",40%
same,share of transgenic tested shoots showing normal greening,[3],1.5%
same,appearance of shoots,wild-type soybean shoots,entirely bleached
